# Data published in ChEMBL document CHEMBL5316293, “Novel Small-Molecule PD-L1 Inhibitor Induces PD-L1 Internalization and Optimizes the Immune Microenvironment” (J Med Chem, 2023).
# Test system: not listed separately
# Experiment: Antitumor activity against humanized mouse LLC-hPD-L1 cells implanted in hPD-1 knockin C57BL/6 mouse assessed as tumor growth inhibition at 10 mg/kg, ip administered for 12 days starting from day 7 post tumor implantation and measured every 2 days relative to control
# Format: functional
# Conditions: LLC-hPD-L1, 288 h, time 12 day, read-out: TGI
row,SMILES,inhibition in vivo at 10 mg/kg [%]
1,COc1nc(OCc2cccc(-c3ccccc3)c2C)ccc1CNCCNC(C)=O,39.8

# Target: Programmed cell death protein 1/Programmed cell death 1 ligand 1 (Homo sapiens, UniProt Q9NZQ7)
# Experiment: Inhibition of europium-labeled PD-1/biotinylated PD-L1 interaction (unknown origin) preincubated for 15 mins with PD-L1 followed by PD-1 addition and measured after 90 mins by TR-FRET assay
# Format: protein-complex assay
# Conditions: not given
# Chain of Programmed cell death protein 1/Programmed cell death 1 ligand 1 (Q15116 whole entry): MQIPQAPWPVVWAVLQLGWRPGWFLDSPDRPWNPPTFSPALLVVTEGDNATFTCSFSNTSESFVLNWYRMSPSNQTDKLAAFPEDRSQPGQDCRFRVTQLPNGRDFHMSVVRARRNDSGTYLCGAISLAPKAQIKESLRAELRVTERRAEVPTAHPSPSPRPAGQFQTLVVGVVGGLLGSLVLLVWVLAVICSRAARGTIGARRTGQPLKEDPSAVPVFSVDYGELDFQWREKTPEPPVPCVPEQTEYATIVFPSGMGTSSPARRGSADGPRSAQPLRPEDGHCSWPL
# Chain of Programmed cell death protein 1/Programmed cell death 1 ligand 1 (Q9NZQ7 whole entry): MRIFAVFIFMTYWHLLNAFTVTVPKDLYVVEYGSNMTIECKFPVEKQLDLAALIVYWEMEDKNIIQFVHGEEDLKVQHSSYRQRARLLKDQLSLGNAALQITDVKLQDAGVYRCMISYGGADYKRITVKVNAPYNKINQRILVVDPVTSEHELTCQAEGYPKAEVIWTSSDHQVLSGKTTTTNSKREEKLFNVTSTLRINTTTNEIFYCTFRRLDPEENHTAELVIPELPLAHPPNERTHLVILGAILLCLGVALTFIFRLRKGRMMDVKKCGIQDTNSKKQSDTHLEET
row,SMILES,IC50 [nM]
1,CC(=O)NCCNCc1ccc2c(c1)C(=O)N(c1cccc(-c3ccccc3)c1C)C2=O,590
2,Cc1c(-c2ccccc2)cccc1N1C(=O)c2ccc(CNCCN)cc2C1=O,912
3,N#Cc1cccc(COc2ccc3c(c2)C(=O)N(c2cccc(-c4ccccc4)c2C#N)C3=O)c1,395
4,Cc1c(-c2ccccc2)cccc1N1C(=O)c2ccc(CNCCNS(C)(=O)=O)cc2C1=O,968
5,N#Cc1c(-c2ccccc2)cccc1N1C(=O)c2ccc(C(=O)NCCO)cc2C1=O,3670
6,COc1cc2c(cc1CNCCNC(C)=O)C(=O)N(c1cccc(-c3ccccc3)c1C)C2=O,46.2
7,Cc1c(-c2ccccc2)cccc1N1C(=O)c2ccc(OCc3ccc(C(C)C)cc3)cc2C1=O,> 10000
8,CC(=O)COc1ccc2c(c1)C(=O)N(c1cccc(-c3ccccc3)c1C)C2=O,1060
9,Cc1c(-c2ccccc2)cccc1N1C(=O)c2ccc(CN(C)CCO)cc2C1=O,917
10,Cc1c(-c2ccccc2)cccc1N1C(=O)c2ccc(OCc3cccc(C#N)c3)cc2C1=O,> 10000
11,CC(=O)NCCNCc1ccc2c(c1)C(=O)N(Cc1cccc(-c3ccccc3)c1C)C2=O,5410
12,Cc1c(-c2ccccc2)cccc1N1C(=O)c2ccc(CN[C@@H](CO)C(=O)O)cc2C1=O,156
13,Cc1c(-c2ccccc2)cccc1N1C(=O)c2ccc(CNCCO)cc2C1=O,342
14,Cc1c(-c2ccccc2)cccc1N1C(=O)c2ccc(CN3CCC[C@H]3CO)cc2C1=O,2210
15,N#Cc1ccc(COc2ccc3c(c2)C(=O)N(c2cccc(-c4ccccc4)c2C#N)C3=O)cc1,> 10000
16,COc1cc2c(cc1CN1CCC[C@H]1C(=O)O)C(=O)N(c1cccc(-c3ccccc3)c1C)C2=O,139
17,COc1cc2c(cc1CNCCO)C(=O)N(c1cccc(-c3ccccc3)c1C)C2=O,15.6
18,Cc1c(-c2ccccc2)cccc1N1C(=O)c2ccc(CN3CCC[C@H]3C(N)=O)cc2C1=O,2760
19,N#Cc1c(-c2ccccc2)cccc1N1C(=O)c2ccc(C(=O)N3CCOCC3)cc2C1=O,6690
20,Cc1c(CN2C(=O)c3ccc(CN4CCCC[C@H]4C(=O)O)cc3C2=O)cccc1-c1ccccc1,4630

row,SMILES,IC50 [nM]
1,Cc1c(-c2ccccc2)cccc1N1C(=O)c2ccc(CNC3CCOCC3)cc2C1=O,683
2,Cc1c(-c2ccccc2)cccc1N1C(=O)c2cc(Br)c(CN3CCCC[C@H]3C(=O)O)cc2C1=O,> 10000
3,Cc1c(-c2ccccc2)cccc1N1C(=O)c2ccc(CNCCNC(=O)OC(C)(C)C)cc2C1=O,2400
4,Cc1c(-c2ccccc2)cccc1N1C(=O)c2ccc(CN3CCCC[C@H]3C(=O)O)cc2C1=O,2110
5,CC(=O)COc1ccc2c(c1)C(=O)N(c1cccc(-c3ccccc3)c1C#N)C2=O,249
6,COc1cc2c(cc1CN[C@@H](CO)C(=O)OC(C)(C)C)C(=O)N(c1cccc(-c3ccccc3)c1C)C2=O,296
7,Cc1c(-c2ccc3c(c2)OCCO3)cccc1N1C(=O)c2ccc(C(=O)NCCO)cc2C1=O,745
8,Cc1c(-c2ccccc2)cccc1N1C(=O)c2ccc(CN3CCOCC3)cc2C1=O,2520
9,Cc1c(-c2ccccc2)cccc1N1C(=O)c2ccc(C(=O)N3CCN(C(C)C)CC3)cc2C1=O,5130
10,Cc1c(-c2ccccc2)cccc1N1C(=O)c2ccc(C(=O)NCCO)cc2C1=O,1890
11,N#Cc1c(-c2ccc3c(c2)OCCO3)cccc1N1C(=O)c2ccc(C(=O)NCCO)cc2C1=O,1170
12,Cc1c(-c2ccccc2)cccc1N1C(=O)c2cc(Br)c(CN3CCOCC3)cc2C1=O,> 10000
13,CCOC(=O)[C@H](CO)NCc1ccc2c(c1)C(=O)N(c1cccc(-c3ccccc3)c1C)C2=O,2380
14,Cc1c(-c2ccccc2)cccc1N1C(=O)c2ccc(CN3CCC[C@H]3C(=O)O)cc2C1=O,1420
15,COc1cc2c(cc1CNCC(=O)O)C(=O)N(c1cccc(-c3ccccc3)c1C)C2=O,35.9
16,Cc1c(-c2ccccc2)cccc1N1C(=O)c2ccc(OCc3ccccc3)cc2C1=O,> 10000
17,Cc1c(-c2ccccc2)cccc1N1C(=O)c2ccc(C(=O)N3CCOCC3)cc2C1=O,1950
18,Cc1c(CN2C(=O)c3ccc(CNCCO)cc3C2=O)cccc1-c1ccccc1,3840
19,COc1cc2c(cc1CN[C@@H](C)C(=O)O)C(=O)N(c1cccc(-c3ccccc3)c1C)C2=O,16.9
